Assays:
[1] = system: hydrochloric acid secretion stimulated by histamine; experiment: inhibition of secretion plateau stimulated by histamine in anesthetized perfused-stomach rats; assay type: in vivo, rat; conditions: 150 nmol/kg i.v., histamine 13.5 μmol/kg/h
Protocol: (§1) For the purpose of these tests, use was made of male Wistar rats weighing 300±25 g. The rats were not allowed to take solid food for 18 hours, but were allowed to drink water freely. They were then anesthesized with urethane (1.25 g/kg) by the intramuscular route. The temperature of the rats was maintained at 34° C. by means of lamps, approximately 60 cm away from them. A polyethylene catheter was introduced into the esophagus up to the level of the cardia and a second catheter for collecting the stomach secretion at the duodenum. After washing the stomach, the latter was continuously perfused with a 0.9% sodium chloride solution, at a flow rate of 1 ml/min, using a peristaltic pump connected to the catheter of the esophagus.
(§2) After a period of stabilizing the system lasting approximately 90 minutes after the operation, the compounds which it was wished to study were injected intravenously into the vein of the penis and the gastric secretion was collected by fractions taken every 20 minutes, the interval between these injections being min 90 minutes. The acidity of the sample fractions was dosed by means of a 0.01N sodium solution at the phenolphthalein colour change.
In this case, use is made of the same operating procedure as in the second group of experiments, by stimulating the secretion by histamine. In this case, a higher histamine dose (13.5 μmol/kg/h) is injected.

[2] = system: hydrochloric acid secretion; experiment: hydrochloric acid secretion in anesthetized rats with perfused stomach (Ghosh and Schild, modified by Lai): agonist effect; assay type: in vivo, rat; conditions: intravenous injection, male Wistar rats
Protocol: as §1, §2

Row | Compound | duration of inhibition of the histamine response [1] | inhibition of the histamine response (intensity) [1] | maximum inhibition percentage (mean ± ESM) ([1]; group of 4 rats) [%] | dose from which activity on hydrochloric acid secretion is maximum [2] [nmol/kg]
1 | CN/C(=N\CCSCc1nc[nH]c1C)NC#N [cimetidine] | approximately 3 h | approximately 55% | 54.4±2.7 | –
2 | CSCC[C@H](NC(=O)[C@H](Cc1c[nH]c2ccccc12)NC(=O)CCNC(=O)OC(C)(C)C)C(=O)N[C@@H](CC(=O)O)C(=O)N[C@@H](Cc1ccccc1)C(N)=O [pentagastrin, Boc-βAla-Trp-Met-Asp-Phe-NH2] | – | – | – | ≥ 20
